The values that follow are results of earlier work, collected in patent publication US7267830B2, “Composition and methods for inhibiting the progression macular degeneration and promoting healthy vision” (Alcon, Inc., priority 2003, dated 2007).

Where two headings read alike, the source gives them in different places.

Data set [1] deals with macular degeneration changes. Particulars: zinc supplement, Newsome 1988.

With `[Zn]` [Zinc], the “retarding macular degeneration changes versus placebo” value in data set [1] was “significantly better than placebo”. The tolerability result (100 mg zinc a day (Wagner 1985)) was “well tolerated without difficulty”, the tolerability entry (150 mg of zinc a day (Wagner 1985)) is “well tolerated without difficulty” and the tolerability result (about 200 mg of zinc per day) is “well-tolerated”. Moreover, the potential side effects result (about 200 mg of zinc per day (Fischer 1983)) is given as “blocking copper absorption”.
